Measurements reported in patent US20240174637A1, “DEGRADERS OF GRK2 AND USES THEREOF” (Sonata Therapeutics, Inc., priority 2021, published 2024).
Where two headings read alike, the source gives them in different places.

Columns and labels:
Type in all cases: cell-based
[1] = tested on: PAXF1657 EV; experiment: 7-day cellular proliferation assay (CellTiter-Glo), PAXF1657 EV
Procedure: (§1) In order to identify compounds specific for GRK2, we generated two isogenic cell line pairs of the pancreatic cancer cell line PAXF1657, a pair of cells stably overexpressing GRK2 cDNA or the control empty vector and a cell line pair of PAXF1657 GRK2 knockout clonal cells versus non-targeting control clonal cells.
(§2) Proliferation Assay: Cellular anti-proliferative activity of compounds was assessed by using the pancreatic cancer cell line, PAXF1657, stably overexpressing GRK2 cDNA or the control empty vector, as well as the parental urinary bladder cancer cell line, 5637. In addition, we also took advantage of GRK2 knockout cell lines that were generated via CRISPR. Cell lines were seeded into tissue culture treated, white-walled, 96-well plates at a density of 500 cells/well in RPMI1640 media supplemented with 10% H.I. FBS and penicillin/streptomycin. Plates were incubated overnight at 37° C., 5% CO2 to allow cells to adhere to the wells. GRK2 inhibitors were added to the cells using a 10-point dilution series with a final concentration ranging from 30 μM-0.0002 μM in 0.3% DMSO. At the time of compound addition, a set of plates, that were not treated with compounds, were collected and cell viability was measured using CellTiter-Glo (Promega). CellTiter-Glo reagent was added to the designed plates and luminescence was measuring using a Biotek Synergy plate reader. The compound treated cells were incubated for 3 days at 37° C., 5% CO2. The media was then aspirated from each well and replaced with fresh media containing GRK2 inhibitors. The compound treated cells were then incubated for an additional 4 days at 37° C., 5% CO2. Cell viability was assessed and at end of the 7-day compound treatment by CellTiterGlo.

[2] = biological target: T1, GRK2 (Homo sapiens, UniProt P25098); experiment: GRK2 Degradation Assay and Western Blot in PAXF1657 cells; design: endogenous in cells; host or cells: PAXF1657
T1 sequence (P25098 1-689): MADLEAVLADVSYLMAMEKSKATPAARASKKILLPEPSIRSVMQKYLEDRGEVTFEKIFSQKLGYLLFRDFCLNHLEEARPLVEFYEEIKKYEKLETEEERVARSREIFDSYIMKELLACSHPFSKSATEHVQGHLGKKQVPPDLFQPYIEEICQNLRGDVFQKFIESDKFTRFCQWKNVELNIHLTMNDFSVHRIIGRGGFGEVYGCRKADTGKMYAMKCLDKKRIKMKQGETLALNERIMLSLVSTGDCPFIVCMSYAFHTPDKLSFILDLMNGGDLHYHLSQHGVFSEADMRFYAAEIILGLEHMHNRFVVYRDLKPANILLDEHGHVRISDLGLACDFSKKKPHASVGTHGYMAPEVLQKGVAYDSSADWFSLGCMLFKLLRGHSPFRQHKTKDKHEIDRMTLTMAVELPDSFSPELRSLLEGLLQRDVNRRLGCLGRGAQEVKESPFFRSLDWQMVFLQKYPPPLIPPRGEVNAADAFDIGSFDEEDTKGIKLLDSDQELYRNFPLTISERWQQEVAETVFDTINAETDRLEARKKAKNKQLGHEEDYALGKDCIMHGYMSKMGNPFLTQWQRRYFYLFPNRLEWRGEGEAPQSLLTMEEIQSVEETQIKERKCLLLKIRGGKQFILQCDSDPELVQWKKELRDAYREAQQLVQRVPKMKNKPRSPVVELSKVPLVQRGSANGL
Procedure: General Protocol: Degradation Assay and Western Blot. PAXF1657 cells were plated in 6-well, 24-well plates or 60 mm tissue culture treated dishes and incubated at 37° C. until 70% confluency. The media was aspirated, and the cells were treated with fresh media containing the compounds in the concentration range of 0 μM to 10 μM for a period of 6 to 24 hours. At the desired time points the cells were washed twice with cold PBS and lysed with lysis buffer (ice cold PBS+1% NP40 with 1/100 protease/phosphatase inhibitors) on ice for 8 mins followed by sonication at 70% intensity pulses for 10 seconds. The cells were centrifuged at 20000 g for 8 min at 4° C. The supernatants were collected and stored at −80° C.
Samples were mixed with NuPAGE LDS sample buffer and NuPAGE sample reducing buffer (3×), vortexed and heated at 95° C. for 10 min, and then analyzed by SDS-PAGE (NuPAGE 4-12%) followed by transfer to nitrocellulose membrane. […] The membranes were washed three times with TBST and incubated with GRK2 or R-actin antibodies in 5% milk in TBST at 4° C. overnight. The membranes were washed three times with TBST and incubated with anti-mouse IgG-HRP or anti-rabbit IgG-HRP at room temperature for 2 hours in 5% milk in TBST. The membranes were washed three times with TBST and developed with ECL Dura, ECL femto or ECL atto substrates.

[3] = tested on: PAXF1657 KO Clone #4; experiment: 7-day cellular proliferation assay (CellTiter-Glo), PAXF1657 KO Clone #4
Procedure: as §1, §2

[4] = proliferation, read-out: GeoMean IC50 (UM) PAXF1657 EV
[5] = Conc 0.3 uM, read-out: Degradation Assay - 3 point: Degradation (%)
[6] = Conc 1 uM, read-out: Degradation Assay - 3 point: Degradation (%)
[7] = Conc 3 uM, read-out: Degradation Assay - 3 point: Degradation (%)
[8] = proliferation, read-out: GeoMean IC50 (uM) PAXF1657 KO Clone #4
[9] = 168 h, 7-day, read-out: 7-day proliferation assay: IC50 GeoMean (uM) [Cell Line: PAXF1657 EV]
[10] = 1 uM, PAXF1657 EV, 24 hrs, read-out: % GRK2 degradation at 1 uM in PAXF1657 EV (24 hrs)
[11] = 3 uM, PAXF1657 EV, 24 hrs, read-out: % GRK2 degradation at 3 uM in PAXF1657 EV (24 hrs)
[12] = 168 h, 7-day, read-out: 7-day proliferation assay: IC50 GeoMean (uM) [Cell Line: PAXF1657 KO Clone #4]
[13] = 0.3 uM, PAXF1657 EV, 24 hrs, read-out: % GRK2 degradation at 0.3 uM in PAXF1657 EV (24 hrs)
[14] = read-out: Degradation Assay - 3 point: Degradation (%)

SMILES | IC50 [1, 4] | inhibition at 0.3 µM [2, 5] | inhibition at 1 µM [2, 6] | inhibition at 3 µM [2, 7] | IC50 [3, 8] | IC50 [1, 9] | inhibition at 1 µM [2, 10] | inhibition at 3 µM [2, 11] | IC50 [3, 12] | inhibition at 0.3 µM [2, 13] | inhibition at 0.3 µM [2, 14] | inhibition at 1 µM [2, 14] | inhibition at 3 µM [2, 14]
C[C@@H](NC(=O)c1cccc(NCc2nnc(-c3ccncn3)n2C)c1)c1cccc(OCCCCCCn2cc(CCC(=O)Nc3cccc4c3CN(C3CCC(=O)NC3=O)C4=O)nn2)c1 (some centres unmarked) [Compound D159] | 18.2 µM | 10% | 46.3% | 64.5% | > 30 µM |  |  |  |  |  |  |  | 
Cn1c(CNc2cccc(C(=O)NCc3cccc(OCCCCCCOCCOCCOCCC(=O)Nc4cccc5c4CN(C4CCC(=O)NC4=O)C5=O)c3)c2)nnc1-c1ccncn1 (centres unmarked) [Compound D195, N-(3-(6-(2-(2-(3-(2-(2,6-dioxopiperidin-3-yl)-1-oxoisoindolin-4-ylamino)-3-oxopropoxy)ethoxy)ethoxy)hexyloxy)benzyl)-3-((4-methyl-5-(pyrimidin-4-yl)-4H-1,2,4-triazol-3-yl)methylamino)benzamide] | 1.09 µM | -46.4% | 9.8% | 32.1% | > 30 µM |  |  |  |  |  |  |  | 
Cn1c(CNc2cccc(C(=O)NCc3cccc(OCCCCCCC(=O)NCCOCCOCCOCCC(=O)Nc4cccc5c4CN(C4CCC(=O)NC4=O)C5=O)c3)c2)nnc1-c1ccncn1 (centres unmarked) [Compound D114] |  |  |  |  |  | > 10 µM | 32% | 15% | > 10 µM |  |  |  | 
Cn1c(CNc2cccc(C(=O)NCc3ccc(OCCCCCOCCCOCC(=O)Nc4cccc5c4CN(C4CCC(=O)NC4=O)C5=O)cc3)c2)nnc1-c1ccncn1 (centres unmarked) [Compound D167, N-(4-(5-(3-(2-(2-(2,6-dioxopiperidin-3-yl)-1-oxoisoindolin-4-ylamino)-2-oxoethoxy)propoxy)pentyloxy)benzyl)-3-((4-methyl-5-(pyrimidin-4-yl)-4H-1,2,4-triazol-3-yl)methylamino)benzamide] | 2.44 µM | 33.3% | 57.4% | 55.2% | > 30 µM |  |  |  |  |  |  |  | 
Cn1c(CNc2cccc(C(=O)NCc3cccc(OCCCCCCCn4cc(CCCC(=O)Nc5cccc6c5CN(C5CCC(=O)NC5=O)C6=O)nn4)c3)c2)nnc1-c1ccncn1 (centres unmarked) [Compound D61] |  |  |  |  |  | > 10 µM | 55% | 52% | > 10 µM | 28% |  |  | 
C[C@@H](NC(=O)c1cccc(NCc2nnc(-c3ccncn3)n2C)c1)c1cccc(OCCCCCn2cc(CCCCC(=O)Nc3cccc4c3CN(C3CCC(=O)NC3=O)C4=O)nn2)c1 (some centres unmarked) [Compound D164] | 5.09 µM | 17.1% | 14.1% | 42.6% | > 30 µM |  |  |  |  |  |  |  | 
Cc1ncsc1-c1ccc(CNC(=O)[C@@H]2C[C@@H](O)CN2C(=O)C(NC(=O)CCCCCOCCOCCOCCCCCCOc2ccc3c(c2)[C@H](NC(=O)c2cccc(NCc4nnc(-c5ccncn5)n4C)c2)CCO3)C(C)(C)C)cc1 (stereo partly drawn) [Compound D186, (2S,4R)-1-((R)-2-tert-butyl-22-((R)-4-(3-((4-methyl-5-(pyrimidin-4-yl)-4H-1,2,4-triazol-3-yl)methylamino)benzamido)chroman-6-yloxy)-4-oxo-10,13,16-trioxa-3-azadocosane)-4-hydroxy-N-(4-(4-methylthiazol-5-yl)benzyl)pyrrolidine-2-carboxamide] | 0.56 µM | 20% | 36.3% | -32.6% | 5.09 µM |  |  |  |  |  |  |  | 
Cn1c(CNc2cccc(C(=O)N[C@@H]3CCOc4ccc(OCCCCCCOCCOCCOCCCCCC(=O)N5CCN(c6ccc7c(c6)CN(C6CCC(=O)NC6=O)C7=O)CC5)cc43)c2)nnc1-c1ccncn1 (stereo partly drawn) [Compound D188, N-((4R)-6-(6-(2-(2-(6-(4-(2-(2,6-dioxopiperidin-3-yl)-1-oxoisoindolin-5-yl)piperazin-1-yl)-6-oxohexyloxy)ethoxy)ethoxy)hexyloxy)chroman-4-yl)-3-((4-methyl-5-(pyrimidin-4-yl)-4H-1,2,4-triazol-3-yl)methylamino)benzamide] | 1.26 µM |  |  |  | > 30 µM |  |  |  |  |  | 56.9% | 67.7% | 78.2%
C[C@@H](NC(=O)c1cccc(NCc2nnc(-c3ccncn3)n2C)c1)c1cccc(OCCCCCn2cc(CCCC(=O)Nc3cccc4c3CN(C3CCC(=O)NC3=O)C4=O)nn2)c1 (some centres unmarked) [Compound D157] | 7.39 µM | 13.5% | 11.1% | 42.3% | > 30 µM |  |  |  |  |  |  |  | 
Cn1c(CNc2cccc(C(=O)NCc3cccc(OCCCCCOCCCOCC(=O)N4CCN(c5ccc6c(c5)CN(C5CCC(=O)NC5=O)C6=O)CC4)c3)c2)nnc1-c1ccncn1 (centres unmarked) [Compound D189, N-(3-((5-(3-(2-(4-(2-(2,6-dioxopiperidin-3-yl)-1-oxoisoindolin-5-yl)piperazin-1-yl)-2-oxoethoxy)propoxy)pentyl)oxy)benzyl)-3-(((4-methyl-5-(pyrimidin-4-yl)-4H-1,2,4-triazol-3-yl)methyl)amino)benzamide] | 0.42 µM | 2.78% | 35.8% | 58.5% | > 30 µM |  |  |  |  |  |  |  | 
Cn1c(CNc2cccc(C(=O)NCc3cccc(OCCCCCn4cc(CCCCC(=O)Nc5cccc6c5CN(C5CCC(=O)NC5=O)C6=O)nn4)c3)c2)nnc1-c1ccncn1 (centres unmarked) [Compound D58] |  |  |  |  |  | 1 to 10 µM | 41% | 68% | > 10 µM | 7% |  |  | 
C[C@@H](NC(=O)c1cccc(NCc2nnc(-c3ccncn3)n2C)c1)c1cccc(OCCCCCCCn2cc(CCCC(=O)Nc3cccc4c3CN(C3CCC(=O)NC3=O)C4=O)nn2)c1 (stereo partly drawn) [Compound D158, N-((1R)-1-(3-(7-(4-(4-(2-(2,6-dioxopiperidin-3-yl)-1-oxoisoindolin-4-ylamino)-4-oxobutyl)-1H-1,2,3-triazol-1-yl)heptyloxy)phenyl)ethyl)-3-((4-methyl-5-(pyrimidin-4-yl)-4H-1,2,4-triazol-3-yl)methylamino)benzamide] | 1.71 µM | 42.9% | 65.8% | 81.9% | > 30 µM |  |  |  |  |  |  |  | 
